US8198273B2, “Compounds and methods for kinase modulation, and indications therefor” (Plexxikon Inc., priority 2009, dated 2012)

How the values were obtained:
[1] = Relative solubility by turbidity in aqueous buffers of varying pH; assay type: physicochemical; conditions: for turbidity threshold (L, M, H) 7.4: HEPES pH 7.4; for turbidity threshold (L, M, H) 4.5: SIF pH 4.5; for turbidity threshold (L, M, H) 6.8: SIF pH 6.8; for turbidity threshold (L, M, H) 1.4: buffer pH 1.4 (SGF)
Method in brief: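 Turbidity endpoint: concentration where optical density at 490, 535 and 650 nm exceeds 0.01, three-wavelength average used. Buffers at pH 1.5, 4.5, 6.8 and 7.4; DMSO serial dilutions of 25 mM stock spiked 1 μL into 99 μL buffer. Low <31.3, moderate 31.3–250, high >250 μM.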

[2] = molecular target: B-Raf (Homo sapiens, UniProt P15056); assay: B-Raf biochemical kinase inhibition (AlphaScreen, biotin-MEK1 substrate); conditions: 100 μM ATP
B-Raf, sequence (P15056 whole entry): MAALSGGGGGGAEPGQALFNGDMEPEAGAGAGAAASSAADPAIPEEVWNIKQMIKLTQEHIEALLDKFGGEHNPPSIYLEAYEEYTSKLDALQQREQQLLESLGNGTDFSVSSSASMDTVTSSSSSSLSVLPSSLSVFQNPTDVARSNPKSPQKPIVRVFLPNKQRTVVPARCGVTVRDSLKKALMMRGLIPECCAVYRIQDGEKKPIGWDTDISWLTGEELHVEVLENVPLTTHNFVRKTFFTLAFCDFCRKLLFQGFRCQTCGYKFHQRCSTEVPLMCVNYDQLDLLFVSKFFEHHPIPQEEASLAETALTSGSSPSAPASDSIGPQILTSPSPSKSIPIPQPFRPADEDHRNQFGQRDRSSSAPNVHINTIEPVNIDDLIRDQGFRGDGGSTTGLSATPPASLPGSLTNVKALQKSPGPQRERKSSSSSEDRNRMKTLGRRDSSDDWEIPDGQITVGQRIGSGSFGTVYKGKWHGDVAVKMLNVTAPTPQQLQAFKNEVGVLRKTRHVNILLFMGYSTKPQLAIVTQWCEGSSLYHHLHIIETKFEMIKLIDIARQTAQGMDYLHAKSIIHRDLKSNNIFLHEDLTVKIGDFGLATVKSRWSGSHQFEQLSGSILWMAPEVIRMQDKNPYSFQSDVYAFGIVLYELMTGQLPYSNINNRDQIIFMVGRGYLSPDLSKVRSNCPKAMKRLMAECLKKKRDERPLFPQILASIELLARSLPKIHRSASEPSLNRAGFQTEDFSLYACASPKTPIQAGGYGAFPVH
Method in brief: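 Eight-point compound series (made from a 0.1 mM DMSO stock) tested against each Raf enzyme with biotin-MEK1 substrate and 100 μM final ATP.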

[3] = molecular target: CYP2C9 (Homo sapiens, UniProt P11712); assay: CYP2C9 inhibition (fluorescent substrate); assay type: in vitro ADME; conditions: CYP2C9, MFC substrate; read-out: Cyp IC50 2C9
CYP2C9, sequence (P11712 whole entry): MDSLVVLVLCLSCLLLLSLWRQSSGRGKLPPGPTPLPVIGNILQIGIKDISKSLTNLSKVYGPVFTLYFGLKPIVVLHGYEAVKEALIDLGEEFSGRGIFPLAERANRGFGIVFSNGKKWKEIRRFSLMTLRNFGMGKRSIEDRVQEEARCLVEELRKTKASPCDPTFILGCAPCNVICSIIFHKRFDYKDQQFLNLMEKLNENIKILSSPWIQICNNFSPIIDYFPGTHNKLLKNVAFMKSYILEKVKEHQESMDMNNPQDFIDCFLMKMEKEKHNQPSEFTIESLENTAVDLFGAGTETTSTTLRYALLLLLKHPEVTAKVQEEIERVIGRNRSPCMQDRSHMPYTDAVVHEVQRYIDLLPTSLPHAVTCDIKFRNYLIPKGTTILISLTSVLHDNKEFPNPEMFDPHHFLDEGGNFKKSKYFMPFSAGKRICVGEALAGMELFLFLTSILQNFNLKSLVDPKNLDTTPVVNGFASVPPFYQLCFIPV
Method in brief: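 10-pt 1:1 serial dilution in co-factor mix (DMSO stock 100 mM); 10 min preincubation, 37 °C; reaction at 37 °C. Readout: fluorescent metabolite of probe substrate. IC50 from signal vs [compound].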

[4] = molecular target: CYP3A4(BQ) (Homo sapiens, UniProt P08684); assay: CYP3A4(BQ) inhibition (fluorescent substrate); assay type: in vitro ADME; conditions: read-out: Cyp IC50 3A4(BQ)
CYP3A4(BQ), sequence (P08684 whole entry): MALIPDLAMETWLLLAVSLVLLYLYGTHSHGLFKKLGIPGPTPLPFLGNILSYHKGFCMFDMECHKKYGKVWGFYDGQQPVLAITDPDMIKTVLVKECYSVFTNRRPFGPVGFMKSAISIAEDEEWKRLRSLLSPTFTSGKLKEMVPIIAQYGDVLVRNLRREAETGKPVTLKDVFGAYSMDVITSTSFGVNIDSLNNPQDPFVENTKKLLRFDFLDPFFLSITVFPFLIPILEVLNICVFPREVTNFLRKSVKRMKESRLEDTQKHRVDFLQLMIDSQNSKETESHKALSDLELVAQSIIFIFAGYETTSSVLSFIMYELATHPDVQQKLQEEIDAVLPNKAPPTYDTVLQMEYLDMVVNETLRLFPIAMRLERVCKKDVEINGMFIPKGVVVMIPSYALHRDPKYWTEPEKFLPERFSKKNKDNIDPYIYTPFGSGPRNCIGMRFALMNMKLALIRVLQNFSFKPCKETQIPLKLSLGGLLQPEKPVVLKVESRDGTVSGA
Method in brief: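 Compound, from a 100 mM DMSO stock and diluted 1:1 over 10 points in co-factor mix, was incubated at 37° C with enzyme and a known substrate. Decrease in fluorescent product against concentration gave the IC50.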

Row | SMILES | turbidity threshold (L, M, H) 7.4 [1] | turbidity threshold (L, M, H) 4.5 [1] | turbidity threshold (L, M, H) 6.8 [1] | turbidity threshold (L, M, H) 1.4 [1] | IC50 [2] [µM] | IC50 [3] [µM] | IC50 [4] [µM]
1 | CCCS(=O)(=O)Nc1ccc(F)c(C(=O)c2c[nH]c3ncc(-c4ccc(C(=O)NC5CC5)nc4)cc23)c1F [P-2181, 5-{3-[2,6-Difluoro-3-(propane-1-sulfonylamino)-benzoyl]-1H-pyrrolo[2,3-b]pyridin-5-yl}-pyridine-2-carboxylic acid cyclopropylamide] | L (low solubility if the threshold concentration is <31.3 04) | L (low solubility if the threshold concentration is <31.3 04) | L (low solubility if the threshold concentration is <31.3 04) | L (low solubility if the threshold concentration is <31.3 04) | < 0.01 | < 5 | > 10
2 | CCCS(=O)(=O)Nc1ccc(F)c(C(=O)c2c[nH]c3ncc(-c4ccc(S(C)(=O)=O)cc4)cc23)c1F [P-2183, Propane-1-sulfonic acid {2,4-difluoro-3-[5-(4-methanesulfonyl-phenyl)-1H-pyrrolo[2,3-b]pyridine-3-carbonyl]-phenyl}-amide] | L (low solubility if the threshold concentration is <31.3 04) | L (low solubility if the threshold concentration is <31.3 04) | L (low solubility if the threshold concentration is <31.3 04) | L (low solubility if the threshold concentration is <31.3 04) | < 0.01 | 5 to 10 | > 10
3 | CCCS(=O)(=O)Nc1ccc(F)c(C(=O)c2c[nH]c3ncc(-c4ccc(OC)nc4OC)cc23)c1F [P-2184, Propane-1-sulfonic acid {3-[5-(2,6-dimethoxy-pyridin-3-yl)-1H-pyrrolo[2,3-b]pyridine-3-carbonyl]-2,4-difluoro-phenyl}-amide] | L (low solubility if the threshold concentration is <31.3 04) | L (low solubility if the threshold concentration is <31.3 04) | L (low solubility if the threshold concentration is <31.3 04) | L (low solubility if the threshold concentration is <31.3 04) | < 0.1 | 5 to 10 | > 10
4 | CCCS(=O)(=O)Nc1ccc(F)c(C(=O)c2c[nH]c3ncc(-c4ccc(S(=O)(=O)N(C)C)cc4)cc23)c1F [P-2185, 4-{3-[2,6-Difluoro-3-(propane-1-sulfonylamino)-benzoyl]-1H-pyrrolo[2,3-b]pyridin-5-yl}-N,N-dimethyl-benzenesulfonamide] | L (low solubility if the threshold concentration is <31.3 04) | L (low solubility if the threshold concentration is <31.3 04) | L (low solubility if the threshold concentration is <31.3 04) | L (low solubility if the threshold concentration is <31.3 04) | < 0.01 | < 5 | > 10
5 | CCCS(=O)(=O)Nc1ccc(F)c(C(=O)c2c[nH]c3ncc(-c4cncc(S(C)(=O)=O)c4)cc23)c1F [P-2188, Propane-1-sulfonic acid {2,4-difluoro-3-[5-(5-methanesulfonyl-pyridin-3-yl)-1H-pyrrolo[2,3-b]pyridine-3-carbonyl]-phenyl}-amide] | M (moderate solubility if the threshold concentration is 31.3 μM to 250 μM) | L (low solubility if the threshold concentration is <31.3 04) | L (low solubility if the threshold concentration is <31.3 04) | M (moderate solubility if the threshold concentration is 31.3 μM to 250 μM) | < 0.01 | 5 to 10 | > 10
6 | CCCS(=O)(=O)Nc1ccc(F)c(C(=O)c2c[nH]c3ncc(-c4cnc(SC)nc4)cc23)c1F [P-2189, Propane-1-sulfonic acid {2,4-difluoro-3-[5-(2-methylsulfanyl-pyrimidin-5-yl)-1H-pyrrolo[2,3-b]pyridine-3-carbonyl]-phenyl}-amide] | L (low solubility if the threshold concentration is <31.3 04) | L (low solubility if the threshold concentration is <31.3 04) | L (low solubility if the threshold concentration is <31.3 04) | L (low solubility if the threshold concentration is <31.3 04) | < 0.01 | < 5 | < 5
7 | CCCS(=O)(=O)Nc1ccc(F)c(C(=O)c2c[nH]c3ncc(-c4cnn(Cc5ccccc5)c4)cc23)c1F [P-2190, Propane-1-sulfonic acid {3-[5-(1-benzyl-1H-pyrazol-4-yl)-1H-pyrrolo[2,3-b]pyridine-3-carbonyl]-2,4-difluoro-phenyl}-amide] | L (low solubility if the threshold concentration is <31.3 04) | L (low solubility if the threshold concentration is <31.3 04) | L (low solubility if the threshold concentration is <31.3 04) | L (low solubility if the threshold concentration is <31.3 04) | < 0.01 | < 5 | > 10
8 | CCCS(=O)(=O)Nc1ccc(F)c(C(=O)c2c[nH]c3ncc(-c4ccnc(F)c4)cc23)c1F [P-2192, Propane-1-sulfonic acid {2,4-difluoro-3-[5-(2-fluoro-pyridin-4-yl)-1H-pyrrolo[2,3-b]pyridine-3-carbonyl]-phenyl}-amide] | L (low solubility if the threshold concentration is <31.3 04) | L (low solubility if the threshold concentration is <31.3 04) | L (low solubility if the threshold concentration is <31.3 04) | L (low solubility if the threshold concentration is <31.3 04) | < 0.01 | 5 to 10 | > 10
9 | CCCS(=O)(=O)Nc1ccc(F)c(C(=O)c2c[nH]c3ncc(-c4ccc(NC(C)=O)nc4)cc23)c1F [P-2193, N-(5-{3-[2,6-Difluoro-3-(propane-1-sulfonylamino)-benzoyl]-1H-pyrrolo[2,3-b]pyridin-5-yl}-pyridin-2-yl)-acetamide] | L (low solubility if the threshold concentration is <31.3 04) | L (low solubility if the threshold concentration is <31.3 04) | L (low solubility if the threshold concentration is <31.3 04) | M (moderate solubility if the threshold concentration is 31.3 μM to 250 μM) | < 0.01 | > 10 | > 10
10 | CCCS(=O)(=O)Nc1ccc(F)c(C(=O)c2c[nH]c3ncc(-c4ccc(S(N)(=O)=O)cc4)cc23)c1F [P-2194, 4-{3-[2,6-Difluoro-3-(propane-1-sulfonylamino)-benzoyl]-1H-pyrrolo[2,3-b]pyridin-5-yl}-benzenesulfonamide] | L (low solubility if the threshold concentration is <31.3 04) | L (low solubility if the threshold concentration is <31.3 04) | L (low solubility if the threshold concentration is <31.3 04) | L (low solubility if the threshold concentration is <31.3 04) | < 0.01 | > 10 | > 10
11 | CCCS(=O)(=O)Nc1ccc(F)c(C(=O)c2c[nH]c3ncc(-c4cnc(N(C)C)nc4)cc23)c1F [P-2196, Propane-1-sulfonic acid {3-[5-(2-dimethylamino-pyrimidin-5-yl)-1H-pyrrolo[2,3-b]pyridine-3-carbonyl]-2,4-difluoro-phenyl}-amide] | L (low solubility if the threshold concentration is <31.3 04) | L (low solubility if the threshold concentration is <31.3 04) | L (low solubility if the threshold concentration is <31.3 04) | M (moderate solubility if the threshold concentration is 31.3 μM to 250 μM) | < 0.01 | 5 to 10 | > 10
12 | CCCS(=O)(=O)Nc1ccc(F)c(C(=O)c2c[nH]c3ncc(-c4cnc(N5CCOCC5)nc4)cc23)c1F [P-2197, Propane-1-sulfonic acid {2,4-difluoro-3-[5-(2-morpholin-4-yl-pyrimidin-5-yl)-1H-pyrrolo[2,3-b]pyridine-3-carbonyl]-phenyl}-amide] | L (low solubility if the threshold concentration is <31.3 04) | L (low solubility if the threshold concentration is <31.3 04) | L (low solubility if the threshold concentration is <31.3 04) | M (moderate solubility if the threshold concentration is 31.3 μM to 250 μM) | < 0.01 | > 10 | > 10
